Source: patent publication US20150307520A1, “NOVEL HETEROARYL AND HETEROCYCLE COMPOUNDS, COMPOSITIONS AND METHODS THEREOF” (HUTCHISON MEDIPHARMA LIMITED, priority 2012, published 2015)

Key:
Format in all cases: biochemical
p110β/p85α = p110β/p85α (Homo sapiens, UniProt P42338); experiment: Transcreener KINASE Assay, kinase inhibition of p110β/p85α; conditions: for PI3Kβ IH % @ 1 uM: 1 uM test compound; for IC50: read-out: PI3Kβ IC50
Protocol: (§1) PI3K kinases including p110α/p85α, p110δ/p85α and p110γ are purchased from Invitrogen, and p110β/p85α is from Millipore.
(§2) Primary screening data and IC50 values are measured using Transcreener™ KINASE Assay (Bellbrook, Catalog #3003-10K). […] It is a universal, homogenous, high throughput screening (HTS) technology using a far-red, competitive fluorescence polarization immunoassay based on the detection of ADP to monitor the activity of enzymes that catalyze group transfer reactions. Briefly, the Transcreener KINASE Assay is designed as a simple two-part, endpoint assay.
(§3) In the first step, the 25 ul kinase reaction is performed by preparing a reaction mixture containing 5 ul test compound (2% DMSO final concentration), 10 ul kinase, buffer (50 mM HEPES, 100 mM NaCl, 1 mM EGTA, 0.03% CHAPS, 3 mM MgCl2, and freshly supplemented 1 mM DTT), and 10 ul 30 uM PIP2/10 uM ATP. The plate is sealed and incubated for 80 min at room temperature. Next, 25 ul ADP detection mix is added per well. The plate is sealed again and incubated for 60 min at room temperature, and then measure fluorescence polarization by Tecan Infinite F500 Reader.
(§4) Data is analyzed and IC50s are generated using the add-in software for Microsoft Excel, Xlfit™ (version 2.0). IH %=(ADP amount under 2% DMSO-ADP amount under test compound)/ADP amount under 2% DMSO.

p110δ/p85α = p110δ/p85α (Homo sapiens, UniProt O00329); experiment: Transcreener KINASE Assay, kinase inhibition of p110δ/p85α; conditions: for PI3Kδ IH % @ 1 uM: 1 uM test compound; for IC50: read-out: PI3Kδ IC50
Chain of p110δ/p85α (O00329 whole entry): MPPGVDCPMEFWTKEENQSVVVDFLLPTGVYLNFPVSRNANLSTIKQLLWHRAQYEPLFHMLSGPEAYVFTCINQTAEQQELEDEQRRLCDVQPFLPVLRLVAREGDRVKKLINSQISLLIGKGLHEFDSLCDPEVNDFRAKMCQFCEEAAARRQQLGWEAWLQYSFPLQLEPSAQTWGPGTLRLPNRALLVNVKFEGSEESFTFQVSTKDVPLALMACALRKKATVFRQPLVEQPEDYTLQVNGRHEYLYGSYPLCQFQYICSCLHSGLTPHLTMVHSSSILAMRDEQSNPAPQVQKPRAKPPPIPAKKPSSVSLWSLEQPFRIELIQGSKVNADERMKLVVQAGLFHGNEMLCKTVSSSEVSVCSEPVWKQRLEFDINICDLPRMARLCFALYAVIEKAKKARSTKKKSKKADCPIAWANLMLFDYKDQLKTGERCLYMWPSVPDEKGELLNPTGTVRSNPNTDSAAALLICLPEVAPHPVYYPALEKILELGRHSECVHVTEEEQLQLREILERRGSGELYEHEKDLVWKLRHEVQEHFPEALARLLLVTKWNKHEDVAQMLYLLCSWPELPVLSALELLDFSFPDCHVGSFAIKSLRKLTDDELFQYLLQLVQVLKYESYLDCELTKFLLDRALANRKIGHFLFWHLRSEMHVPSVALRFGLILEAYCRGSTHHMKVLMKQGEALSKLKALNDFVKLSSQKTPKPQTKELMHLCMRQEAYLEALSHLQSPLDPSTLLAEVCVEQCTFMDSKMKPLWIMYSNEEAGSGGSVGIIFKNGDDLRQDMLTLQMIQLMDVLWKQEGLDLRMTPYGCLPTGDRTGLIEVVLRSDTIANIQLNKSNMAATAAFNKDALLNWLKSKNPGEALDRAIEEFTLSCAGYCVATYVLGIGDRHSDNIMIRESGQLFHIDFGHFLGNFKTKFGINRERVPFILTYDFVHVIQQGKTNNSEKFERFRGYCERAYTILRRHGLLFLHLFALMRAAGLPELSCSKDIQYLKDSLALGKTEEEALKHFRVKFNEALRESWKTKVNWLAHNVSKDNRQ
Chain of p110δ/p85α (P27986 whole entry partner): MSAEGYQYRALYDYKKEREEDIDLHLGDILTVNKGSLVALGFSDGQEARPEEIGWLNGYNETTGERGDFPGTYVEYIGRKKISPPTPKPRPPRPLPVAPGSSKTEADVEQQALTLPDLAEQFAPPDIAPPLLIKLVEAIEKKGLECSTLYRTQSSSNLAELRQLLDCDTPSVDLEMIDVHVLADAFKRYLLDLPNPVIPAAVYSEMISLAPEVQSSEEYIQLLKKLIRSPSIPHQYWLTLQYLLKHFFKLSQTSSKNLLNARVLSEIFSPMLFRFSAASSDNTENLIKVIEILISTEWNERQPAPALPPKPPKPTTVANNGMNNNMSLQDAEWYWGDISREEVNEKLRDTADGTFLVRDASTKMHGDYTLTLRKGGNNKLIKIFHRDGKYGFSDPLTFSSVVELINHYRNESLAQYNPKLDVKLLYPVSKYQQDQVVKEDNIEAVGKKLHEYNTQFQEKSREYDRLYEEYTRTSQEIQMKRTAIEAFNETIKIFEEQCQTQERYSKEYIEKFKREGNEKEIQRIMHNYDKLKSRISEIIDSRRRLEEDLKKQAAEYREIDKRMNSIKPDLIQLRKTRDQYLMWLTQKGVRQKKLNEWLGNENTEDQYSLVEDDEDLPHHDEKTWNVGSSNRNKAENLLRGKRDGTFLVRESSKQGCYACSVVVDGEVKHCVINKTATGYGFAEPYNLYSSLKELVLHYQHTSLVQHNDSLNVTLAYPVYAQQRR
Protocol: as §1, §2, §3, §4

p110γ = p110γ (Homo sapiens, UniProt P48736); experiment: Transcreener KINASE Assay, kinase inhibition of p110γ; conditions: for PI3Kγ IH % @ 1 uM: 1 uM test compound; for IC50: read-out: PI3Kγ IC50
Chain of p110γ (P48736 whole entry): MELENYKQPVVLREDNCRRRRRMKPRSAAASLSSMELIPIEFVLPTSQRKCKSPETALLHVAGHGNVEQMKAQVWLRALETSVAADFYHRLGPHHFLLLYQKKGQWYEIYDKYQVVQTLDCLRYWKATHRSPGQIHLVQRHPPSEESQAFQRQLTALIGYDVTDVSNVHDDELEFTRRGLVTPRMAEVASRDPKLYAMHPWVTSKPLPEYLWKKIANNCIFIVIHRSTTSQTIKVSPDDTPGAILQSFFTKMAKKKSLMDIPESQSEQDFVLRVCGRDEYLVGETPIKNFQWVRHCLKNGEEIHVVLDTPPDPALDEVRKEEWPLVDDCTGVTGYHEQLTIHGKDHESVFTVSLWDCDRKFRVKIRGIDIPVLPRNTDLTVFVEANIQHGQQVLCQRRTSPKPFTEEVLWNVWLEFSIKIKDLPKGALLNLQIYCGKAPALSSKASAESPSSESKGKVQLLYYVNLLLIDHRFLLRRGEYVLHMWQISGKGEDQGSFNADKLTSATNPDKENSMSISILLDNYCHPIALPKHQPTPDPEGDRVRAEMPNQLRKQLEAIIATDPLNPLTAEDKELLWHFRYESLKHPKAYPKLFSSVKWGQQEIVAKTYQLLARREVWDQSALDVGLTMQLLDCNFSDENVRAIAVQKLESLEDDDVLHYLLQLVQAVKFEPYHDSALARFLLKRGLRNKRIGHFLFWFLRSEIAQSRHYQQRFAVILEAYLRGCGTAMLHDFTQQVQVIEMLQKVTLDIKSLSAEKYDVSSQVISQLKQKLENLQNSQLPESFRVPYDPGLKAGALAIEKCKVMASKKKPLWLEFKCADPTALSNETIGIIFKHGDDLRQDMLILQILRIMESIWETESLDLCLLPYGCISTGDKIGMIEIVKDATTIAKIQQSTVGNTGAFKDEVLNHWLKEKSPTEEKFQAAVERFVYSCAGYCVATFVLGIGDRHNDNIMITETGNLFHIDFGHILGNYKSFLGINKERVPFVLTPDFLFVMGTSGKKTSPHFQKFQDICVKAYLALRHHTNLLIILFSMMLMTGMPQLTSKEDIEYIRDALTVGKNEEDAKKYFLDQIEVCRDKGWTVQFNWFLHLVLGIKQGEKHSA
Protocol: Kinase Inhibition assays of p110α/p85α, p110β/p85α, p110δ/p85α and p110γ PI3K kinases including p110α/p85α, p110δ/p85α and p110γ are purchased from Invitrogen, and p110β/p85α is from Millipore. Primary screening data and IC50 values are measured using Transcreener™ KINASE Assay (Bellbrook, Catalog #3003-10K). […] It is a universal, homogenous, high throughput screening (HTS) technology using a far-red, competitive fluorescence polarization immunoassay based on the detection of ADP to monitor the activity of enzymes that catalyze group transfer reactions. Briefly, the Transcreener KINASE Assay is designed as a simple two-part, endpoint assay. […] The plate is sealed and incubated for 80 min at room temperature. Next, 25 ul ADP detection mix is added per well. The plate is sealed again and incubated for 60 min at room temperature, and then measure fluorescence polarization by Tecan Infinite F500 Reader. Data is analyzed and IC50s are generated using the add-in software for Microsoft Excel, Xlfit™ (version 2.0).

Chain of p110β/p85α (P42338 whole entry): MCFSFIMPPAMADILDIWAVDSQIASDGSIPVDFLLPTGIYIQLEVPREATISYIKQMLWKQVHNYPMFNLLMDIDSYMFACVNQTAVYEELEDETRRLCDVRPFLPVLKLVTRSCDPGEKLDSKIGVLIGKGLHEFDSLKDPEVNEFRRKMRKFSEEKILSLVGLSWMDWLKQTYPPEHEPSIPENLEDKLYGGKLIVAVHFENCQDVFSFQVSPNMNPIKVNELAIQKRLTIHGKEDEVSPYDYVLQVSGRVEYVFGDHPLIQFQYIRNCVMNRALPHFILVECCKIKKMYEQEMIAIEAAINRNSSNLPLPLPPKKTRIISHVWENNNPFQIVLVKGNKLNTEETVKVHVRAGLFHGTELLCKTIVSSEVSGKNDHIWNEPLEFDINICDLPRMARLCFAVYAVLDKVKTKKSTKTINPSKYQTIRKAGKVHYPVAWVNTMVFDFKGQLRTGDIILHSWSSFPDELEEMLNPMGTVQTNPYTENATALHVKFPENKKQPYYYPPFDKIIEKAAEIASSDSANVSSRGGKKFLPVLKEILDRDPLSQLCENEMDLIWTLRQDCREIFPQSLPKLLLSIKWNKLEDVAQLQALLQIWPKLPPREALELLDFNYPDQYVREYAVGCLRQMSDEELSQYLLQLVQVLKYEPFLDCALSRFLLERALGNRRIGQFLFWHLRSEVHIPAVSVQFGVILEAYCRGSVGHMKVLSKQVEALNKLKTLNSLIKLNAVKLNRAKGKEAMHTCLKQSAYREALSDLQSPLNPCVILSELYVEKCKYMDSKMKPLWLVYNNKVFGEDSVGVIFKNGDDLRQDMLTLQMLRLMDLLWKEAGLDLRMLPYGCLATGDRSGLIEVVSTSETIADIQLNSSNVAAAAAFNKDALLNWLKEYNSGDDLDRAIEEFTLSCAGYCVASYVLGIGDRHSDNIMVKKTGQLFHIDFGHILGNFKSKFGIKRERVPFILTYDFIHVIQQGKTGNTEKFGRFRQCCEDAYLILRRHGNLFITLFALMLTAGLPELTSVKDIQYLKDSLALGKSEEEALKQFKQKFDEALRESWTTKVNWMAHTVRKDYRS
Chain of p110β/p85α (P27986 2-724 partner): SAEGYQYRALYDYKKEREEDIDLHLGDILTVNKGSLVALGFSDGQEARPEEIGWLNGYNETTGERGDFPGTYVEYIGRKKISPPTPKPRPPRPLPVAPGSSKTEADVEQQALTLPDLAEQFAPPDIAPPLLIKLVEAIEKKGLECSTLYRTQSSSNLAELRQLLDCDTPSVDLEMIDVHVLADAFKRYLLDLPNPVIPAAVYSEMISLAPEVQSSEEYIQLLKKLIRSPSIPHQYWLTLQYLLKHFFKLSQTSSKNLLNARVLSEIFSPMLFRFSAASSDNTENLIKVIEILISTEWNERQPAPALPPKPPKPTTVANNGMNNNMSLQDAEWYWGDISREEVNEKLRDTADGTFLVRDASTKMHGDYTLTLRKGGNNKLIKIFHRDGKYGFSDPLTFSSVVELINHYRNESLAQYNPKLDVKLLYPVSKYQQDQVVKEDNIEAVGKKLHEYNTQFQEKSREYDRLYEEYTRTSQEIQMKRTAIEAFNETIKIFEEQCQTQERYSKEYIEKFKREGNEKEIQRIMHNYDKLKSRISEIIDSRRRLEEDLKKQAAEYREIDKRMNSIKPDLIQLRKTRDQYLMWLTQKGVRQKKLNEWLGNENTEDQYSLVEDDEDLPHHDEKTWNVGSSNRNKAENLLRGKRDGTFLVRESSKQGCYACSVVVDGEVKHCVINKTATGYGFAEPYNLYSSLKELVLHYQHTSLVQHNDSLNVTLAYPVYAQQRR

SMILES | PI3Kβ IH % @ 1 uM (p110β/p85α) [%] | PI3Kδ IH % @ 1 uM (p110δ/p85α) [%] | IC50 (p110δ/p85α) [nM] | PI3Kγ IH % @ 1 uM (p110γ) [%] | IC50 (p110γ) [nM] | IC50 (p110β/p85α) [nM]
C[S+]([O-])c1c[nH]c2ncnc(N3CCC[C@H]3c3nn4ccc(Cl)c4c(=O)n3-c3cccc(F)c3)c12 (single isomer, unassigned) [Compound 387] | 39.6 | 98.2 | 7 | >100 | 9 | –
O=c1c2c(Cl)ccn2nc([C@@H]2CCCN2c2ncnc3[nH]cnc23)n1-c1ccncn1 [Compound 344] | 57.3 | 94.8 | 85 | 85.5 | 81 | –
Cc1ccn2cc(C(C)Nc3ncnc(N)c3C#N)n(-c3ccccc3)c(=O)c12 (stereo not drawn) [Compound 90, 4-amino-6-(1-(8-methyl-1-oxo-2-phenyl-1,2-dihydropyrrolo[1,2-a]pyrazin-3-yl)ethylamino)pyrimidine-5-carbonitrile] | 93.1 | >100 | – | 95.7 | 34 | 24
CCC(=O)c1cnc(N)nc1N1CC[C@H]1c1nn2ccc(Cl)c2c(=O)n1-c1ccccc1 [Compound 362] | 4.1 | 56.0 | – | 97.4 | 40 | –
Nc1ncc(-c2n[nH]c3ncnc(N4CC[C@H]4c4nn5ccc(Cl)c5c(=O)n4-c4ccccc4)c23)cn1 [Compound 171] | 25.2 | 96.6 | 5 | 75.3 | 130 | –
COc1ccc(-c2c[nH]c3ncnc(N4CC[C@H]4c4nn5ccc(Cl)c5c(=O)n4-c4ccccc4)c23)cn1 [Compound 102] | 92.3 | >100 | 1 | >100 | 14 | 61
N#Cc1c[nH]c2ncnc(N3C[C@@H](O)C[C@H]3c3nn4ccc(Cl)c4c(=O)n3-c3cccc(F)c3)c12 [Compound 261] | >100 | >100 | 1 | >100 | 3 | 31
O=c1c2c(Cl)ccn2nc([C@@H]2CSCN2c2ncnc3[nH]cnc23)n1-c1ccccc1 [Compound 294, (R)-2-(3-(9H-purin-6-yl)thiazolidin-4-yl)-5-chloro-3-phenylpyrrolo[2,1-f][1,2,4]triazin-4(3H)-one] | 70.6 | 99.3 | 3 | >100 | 26 | 475
Nc1ncc(-c2n[nH]c3ncnc(N4CCC[C@H]4c4nn5ccc(Cl)c5c(=O)n4-c4ccccc4)c23)cn1 [Compound 166] | >100 | 97.2 | 1 | >100 | 2 | 17

More lines, now with the values ahead:

PI3Kβ IH % @ 1 uM (p110β/p85α) [%] | PI3Kδ IH % @ 1 uM (p110δ/p85α) [%] | IC50 (p110δ/p85α) [nM] | PI3Kγ IH % @ 1 uM (p110γ) [%] | IC50 (p110γ) [nM] | IC50 (p110β/p85α) [nM] | SMILES
71.1 | >100 | 6 | >100 | 46 | 473 | N#Cc1c[nH]c2ncnc(N3C[C@@H](F)C[C@H]3c3nn4ccc(Cl)c4c(=O)n3Cc3ccccn3)c12 [Compound 158]
92.8 | >100 | 11 | >100 | 29 | 16 | C/C(=N\O)c1c[nH]c2ncnc(N3CCC[C@H]3c3nn4ccc(Cl)c4c(=O)n3-c3ccccc3)c12 [Compound 306, (S)-5-chloro-2-(1-(5-(1-(hydroxyimino)ethyl)-7H-pyrrolo[2,3-d]pyrimidin-4-yl)pyrrolidin-2-yl)-3-phenylpyrrolo[2,1-f][1,2,4]triazin-4(3H)-one]
38.4 | 78.0 | 341 | 77.5 | 337 | – | Nc1nc2c(c(N3CCC[C@H]3c3nn4ccc(Br)c4c(=O)n3-c3ccccc3)n1)CCC2 [Compound 245]
54.8 | 99.1 | 6 | 93.2 | 26 | – | N#Cc1cnc(N)nc1N1CCC[C@H]1c1nn2ccc(Cl)c2c(=O)n1C1CCC1 [Compound 376]
29.1 | 95.9 | 18 | 87.3 | 63 | – | N#Cc1c[nH]c2ncnc(N3CC[C@H]3c3nn4ccc(C(F)(F)F)c4c(=O)n3-c3ccccc3)c12 [Compound 488]
98.8 | >100 | – | 95.1 | – | – | COc1ncc(-c2n[nH]c3ncnc(N4CCC[C@H]4c4nn5ccc(Cl)c5c(=O)n4-c4ccccc4)c23)cn1 [Compound 168]
61.0 | 99.8 | 4 | 98.3 | 192 | – | COc1ccc(-c2n[nH]c3ncnc(N4CCC[C@H]4c4nn5ccc(Cl)c5c(=O)n4-c4ccccc4)c23)cn1 [Compound 109]
92.7 | 97.2 | 1 | 94.6 | 1 | 21 | O=c1c2c(Cl)ccn2nc([C@@H]2CCCN2c2ncnc3[nH]cc(C4=NCCO4)c23)n1-c1ccccc1 [Compound 303, (S)-5-chloro-2-(1-(5-(4,5-dihydrooxazol-2-yl)-7H-pyrrolo[2,3-d]pyrimidin-4-yl)pyrrolidin-2-yl)-3-phenylpyrrolo[2,1-f][1,2,4]triazin-4(3H)-one]
94.8 | >100 | 1 | >100 | 3 | 44 | N#C[C@H]1C[C@@H](c2nn3ccc(Cl)c3c(=O)n2-c2ccccc2)N(c2ncnc3[nH]cnc23)C1 [Compound 359]
93.2 | 99.2 | 1 | >100 | 5 | 21 | N#Cc1c[nH]c2ncnc(N3CCC[C@H]3c3nn4ccc(Cl)c4c(=O)n3-c3ccccn3)c12 [Compound 337, (S)-4-(2-(5-chloro-4-oxo-3-(pyridin-2-yl)-3,4-dihydropyrrolo[2,1-f][1,2,4]triazin-2-yl)pyrrolidin-1-yl)-7H-pyrrolo[2,3-d]pyrimidine-5-carbonitrile]
69.1 | 98.6 | 2 | 92.0 | – | 191 | CC(=O)c1c[nH]c2ncnc(N3CCC[C@H]3c3nn4ccc(Cl)c4c(=O)n3-c3cccc(F)c3)c12 [Compound 210]
17.1 | 59.5 | 2000 | 94.6 | 34 | – | C[S+]([O-])c1c[nH]c2ncnc(N3CC[C@H]3c3nn4ccc(Cl)c4c(=O)n3-c3ccc(F)cc3)c12 (stereo partly drawn) [Compound 199]
72.6 | >100 | 4 | >100 | 73 | 304 | N#Cc1c[nH]c2ncnc(N3CCC[C@H]3c3nn4ccc(Cl)c4c(=O)n3CCN3CCOCC3)c12 [Compound 255]
